This passage reports IC50 results from patent US20110098325A1, “PYRIDINE BENZAMIDES AND PYRAZINE BENZAMIDES USED AS PKD INHIBITORS” (CANCER RESEARCH TECHNOLOGY LIMITED, priority 2006, published 2011).

The target in this assay is T1, human full length PKD2 (Homo sapiens, UniProt Q9BZL6).
T1 construct: human full length PKD2 at ˜100 μg/mL was purchased from Upstate Ltd; purchased Upstate Ltd 14-506
T1 sequence (Q9BZL6 1-878): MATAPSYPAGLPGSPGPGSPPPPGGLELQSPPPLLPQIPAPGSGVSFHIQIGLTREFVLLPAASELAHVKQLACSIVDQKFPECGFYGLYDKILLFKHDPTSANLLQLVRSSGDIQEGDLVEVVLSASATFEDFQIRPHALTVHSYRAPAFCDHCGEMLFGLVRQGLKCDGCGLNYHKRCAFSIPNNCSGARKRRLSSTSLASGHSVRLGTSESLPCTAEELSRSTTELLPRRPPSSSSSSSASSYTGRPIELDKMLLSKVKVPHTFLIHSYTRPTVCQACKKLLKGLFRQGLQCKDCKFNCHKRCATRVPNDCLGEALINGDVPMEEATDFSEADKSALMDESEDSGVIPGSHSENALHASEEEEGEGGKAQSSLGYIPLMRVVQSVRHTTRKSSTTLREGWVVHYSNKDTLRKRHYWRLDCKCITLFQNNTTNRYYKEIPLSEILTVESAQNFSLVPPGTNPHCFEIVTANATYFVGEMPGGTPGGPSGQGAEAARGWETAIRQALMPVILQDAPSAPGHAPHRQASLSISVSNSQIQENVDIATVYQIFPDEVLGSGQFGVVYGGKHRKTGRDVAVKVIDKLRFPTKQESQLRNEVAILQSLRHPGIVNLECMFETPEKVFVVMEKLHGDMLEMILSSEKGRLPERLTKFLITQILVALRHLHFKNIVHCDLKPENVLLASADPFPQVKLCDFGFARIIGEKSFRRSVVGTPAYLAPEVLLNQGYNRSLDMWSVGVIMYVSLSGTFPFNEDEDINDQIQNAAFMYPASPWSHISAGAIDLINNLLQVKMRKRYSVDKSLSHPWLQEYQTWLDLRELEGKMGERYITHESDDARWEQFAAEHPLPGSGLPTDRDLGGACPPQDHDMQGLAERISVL
Kind of assay: PKD2 (Human Full Length) Enzyme Activity Assay (IMAP fluorescence polarisation). Format: biochemical. The settings on record: stands directly after the PKD2 data (b743-b745); read-out: IC50, printed as PKD1 (Human Full Length) Enzyme Activity Assay. How it is done:
Kinase Assay Reaction Buffer: This consisted of 0.22 μM filtered 25 mM HEPES and 10 mM MgCl2 pH 7.5.
Kinase: human full length PKD2 at ˜100 μg/mL was purchased from Upstate Ltd (Product code 14-506), and obtained from aliquots stored at −70° C. It was prepared with a final concentration of 0.1 μg/mL by diluting 1:300 in Reaction Buffer (30 μL per 9 mL-5 mL per plate with an additional 4 mL dead volume) and vortexing prior to use. It is necessary to check this concentration regularly in case of enzyme degradation.
Substrate: Fluorescein labelled glycogen synthase-derived peptide (FI)-KKLNRTLSVA (also known as MAPKAP K2 substrate) was obtained from Molecular Devices (Product code R7127). […]
5 μL Kinase/Substrate in Reaction Buffer was added to ‘test’ and all ‘control’ wells of a Corning black low binding 384 well (90 μL volume) microplate to give 0.1 μg/mL and 2 μM reaction concentration respectively. […] The fluorescence polarisation of the peptide substrate was measured using an analyst (Molecular devices) microplate reader with a single read at Ex485 Em535 (Analyst settings: Z Height 5 mm, G Factor 0.95, Reads/well 1, Integration 100000 μs, Gain Sensitivity 2).
Percentage inhibition was calculated based on activity of the test sample minus the average values in the blank wells relative to the average values measured in control wells minus the average values in the blank wells. […]

A word on the IC50: it is the concentration needed to halve the response being measured. As for `COc1cc(-c2cncc(-c3cccc(C(=O)NCCN(C)C)c3)n2)ccc1O` [X-007, N-(2-Dimethylamino-ethyl)-3-[6-(4-hydroxy-3-methoxy-phenyl)-pyrazin-2-yl]-benzamide], the IC50 turned out to be 420 nM.

For `COc1cc(-c2cc(-c3cccc(C(=O)NCCN(C)C)c3)cnc2N)ccc1O` [Y-059, 3-[6-Amino-5-(4-hydroxy-3-methoxy-phenyl)-pyridin-3-yl]-N-(2-dimethylamino-ethyl)-benzamide], the IC50 was found to be 32 nM.
